# Test results: US4560685A, “2-Piperazino-pteridines useful as antithrombotics and antimetastatics” (Dr. Karl Thomae Gesellschaft mit beschrankter Haftung, priority 1984, dated 1985)
# System: mice
# Assay: Approximate acute toxicity after oral administration
# Format: in vivo
# Settings: single dose, observation period 14 days; for animals died: 250 mg/kg
# Method: The approximate acute toxicity of the test compounds was determined on groups of 5 mice after oral administration of a single dose (observation period: 14 days).
SMILES,animals died,Approximate acute toxicity [mg/kg]
"CN(C)c1nc(N2CCNCC2)nc2nc(NCc3ccccc3)c(Cl)nc12 [E, 6-chloro-2-piperazino-4-dimethylamino-7-benzylamino-pteridine]",0 out of 5,> 250
"CN(C)c1nc2nc(N3CCNCC3)nc(N(C)C)c2nc1SCc1ccccc1 [C, 6-benzylthio-4,7-bis-(dimethylamino)-2-piperazino-pteridine]",0 out of 5,> 250
"c1ccc(CSc2nc3c(N4CCOCC4)nc(N4CCNCC4)nc3nc2N2CCOCC2)cc1 [Compound A, 6-benzylthio-4,7-dimorpholino-2-piperazino-pteridine]",0 out of 5,> 250
"CN(C)c1nc2nc(N3CCNCC3)nc(N(C)C)c2nc1Cl [B, 6-chloro-4,7-bis(dimethylamino)-2-piperazino-pteridine]",0 out of 5,> 250
"CSc1nc2c(N3CC[S+]([O-])CC3)nc(N3CCNCC3)nc2nc1NCc1ccccc1 [D, 7-benzylamino-6-methylthio-4-(1-oxido-thiomorpholino)-2-piperazino-pteridine]",0 out of 5,> 250
